The values that follow come from ChEMBL document CHEMBL1201862, “PubChem BioAssay data set” (2004).

Assay in all cases: NCI tumour cell line growth inhibition, 48 h
For experiment [1], the system named is SNB-75.
For experiment [2], the system named is UACC-257.
Experiment [3] has as its system A549.
In experiment [4] the test system is OVCAR-3.
Experiment [5] relates to UO-31.
For experiment [6], the system named is COLO 205.
In experiment [7] the test system is OVCAR-4.
In experiment [8] the test system is SF-295.
Experiment [9] relates to M14.
The test system of experiment [10] is SNB-19.
Experiment [11] concerns HCT-15.
Experiment [12] has as its system UACC-62.
In experiment [13] the test system is OVCAR-8.
Experiment [14] has as its system HCT-116.
The test system of experiment [15] is 786-0.
The subject of experiment [16] is SK-MEL-28.
In experiment [17] the test system is SK-MEL-2.

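Method: 48-hour compound exposure of cells in 96-well plates, five concentrations, linear interpolation of endpoints. The concentration for 50% growth inhibition is given as GI50.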 Calls of active or inactive are those of the source. Rule as the data show it: active = GI50 up to about 1.1 µM and inactive = higher. Non-standard residues stand in square brackets, D forms with d. Residues, ends and D or L forms follow the SMILES beside them. *: point of attachment. NMeF = CN[CH](Cc1ccccc1)C(=O)O; NMeV = CN[CH](C(=O)O)C(C)C; Boc = CC(C)(C)OC(=O)*

As to `CC(C)C1CC[C@@H](C)C[C@@]1(O)CC(N)=O` (stereo partly specified), the GI50 in experiment [1] is 66.2 µM (inactive); in experiment [2], > 100 µM (inactive); in experiment [3] it was > 100 µM (inactive); in [4], > 100 µM (inactive); in experiment [5], > 100 µM (inactive); in experiment [6] it was > 100 µM (inactive). Also, the GI50 in [7] was > 100 µM (inactive); in experiment [8] it was > 100 µM (inactive); in experiment [9], > 100 µM (inactive); in [10] it was > 100 µM (inactive); in experiment [11], over 100 µM; in experiment [12], > 100 µM (inactive). In addition, the GI50 in experiment [13], in experiment [14], in experiment [15], in [16] and in experiment [17] was > 100 µM (inactive) throughout.
With `CC(C)C(NC(=O)OC(C)(C)C)C(=O)N(C)C(Cc1ccccc1)C(=O)N(C)C(C(=O)O)C(C)C` (stereo not drawn) (Boc-Val-[NMeF]-[NMeV]-OH; configuration not given here), the GI50 in [2], in [3], in [4], in experiment [5], in experiment [6] and in experiment [8] was > 100 µM (inactive) in each case. Further, the GI50 is > 100 µM (inactive) in experiment [9]; > 100 µM (inactive) in experiment [10]; over 100 µM in experiment [11]; > 100 µM (inactive) in experiment [12]; > 100 µM (inactive) in experiment [13]; > 100 µM (inactive) in experiment [14]. In addition, the GI50 in experiment [15] and in [16] was > 100 µM (inactive) in each case.
`COc1cc(C(=O)C(CO)Oc2ccccc2OC)ccc1O` (stereo unspecified): the GI50 in experiment [1] is 67 µM (inactive); in experiment [2], > 100 µM (inactive); in experiment [3], > 100 µM (inactive); in [4] it was > 100 µM (inactive); in [5], > 100 µM (inactive); in experiment [6], > 100 µM (inactive). For the same compound, the GI50 in experiment [7] was > 100 µM (inactive); in experiment [8] it was > 100 µM (inactive); in experiment [9], > 100 µM (inactive); in experiment [10], > 100 µM (inactive); in [11], over 100 µM; in experiment [12], > 100 µM (inactive). For the same compound, the GI50 in experiment [13], in experiment [14], in experiment [15] and in experiment [16] was > 100 µM (inactive) throughout.
Consider `CCC1C(C)c2c([nH]c3ccccc23)C2C(=O)N(c3ccccc3)C(=O)C21` (stereo unspecified), for which the GI50 was 11.4 µM (inactive) in [1]; 17.3 µM (inactive) in experiment [3]; 13.3 µM (inactive) in experiment [4]; 16.1 µM (inactive) in [6]; 13.4 µM (inactive) in experiment [7]; 15.1 µM (inactive) in experiment [8]. Also, the GI50 is 17.8 µM (inactive) in [9]; 13.6 µM in [11]; 9.42 µM (inactive) in experiment [12]; 14.5 µM (inactive) in experiment [13]; 16.9 µM (inactive) in experiment [15]; 17.7 µM (inactive) in experiment [16].
Consider `CC1=CC(=O)N2C(OC[C@@H]2c2ccccc2)O1` (stereo partly specified), for which the GI50 in [1], in experiment [2], in experiment [3], in experiment [4], in experiment [5] and in experiment [6] was > 100 µM (inactive) throughout. The GI50 is > 100 µM (inactive) in experiment [7]; > 100 µM (inactive) in [8]; > 100 µM (inactive) in experiment [9]; > 100 µM (inactive) in experiment [10]; over 100 µM in [11]; > 100 µM (inactive) in experiment [12]. The GI50 in [13], in experiment [14], in [15], in [16] and in experiment [17] was > 100 µM (inactive) each time.
